From ChEMBL document CHEMBL1158650, “Isolation in High Yield of Citrinin From Penicillium odoratum and of Mycophenolic Acid From Penicillium brunneo-stoloniferum” (1979)
In brackets after ≈: the same amount, converted by molar mass.

What was measured:
Format in all cases: functional
Bacillus subtilis = experiment: Antibacterial activity against Bacillus subtilis IFO 3108 by twofold dilution method
Alternaria = experiment: Antifungal activity against Alternaria maritima IFO 8618 by twofold dilution method
Fusarium graminearum = experiment: Antifungal activity against Gibberella zeae IFO 4474 by twofold dilution method

| Compound | MIC (Bacillus subtilis) [µg/mL] | MIC (Alternaria) [µg/mL] | MIC (Fusarium graminearum) [µg/mL] |
| --- | --- | --- | --- |
| CC1=C2C(=CO[C@H](C)[C@H]2C)C(O)=C(C(=O)O)C1=O [CITRININ] | 25 (≈ 99.9 µM) | – | – |
| COc1c(C)c2c(c(O)c1C/C=C(\C)CCC(=O)O)C(=O)OC2 [MYCOPHENOLIC ACID] | – | 200 (≈ 624 µM) | 200 (≈ 624 µM) |
